Measured values from PMC8843100, “Development of newly synthesised quinazolinone-based CDK2 inhibitors with potent efficacy against melanoma” (Journal of Enzyme Inhibition and Medicinal Chemistry, 2022).

Experiments:
Assay in all cases: NCI-60 single dose screen, sulforhodamine B
Assay type in all cases: cell-based, human
[1] = test system: PC-3; settings: Prostate cancer PC-3; single dose 10^−5 M
Procedure, shortened: (§1)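 A one-concentration test: 10 µM, from dry powder dissolved in DMSO. Plates got compound one day post-seeding and were incubated 2 more days, then fixed and SRB-stained.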

[2] = test system: CCRF-CEM; settings: Leukaemia CCRF-CEM; single dose 10^−5 M
Procedure, shortened: as §1

[3] = test system: NCI/ADR-RES; settings: Ovarian cancer NCI/ADR-RES; single dose 10^−5 M
Procedure, shortened: as §1

[4] = test system: M14; settings: Melanoma M14; single dose 10^−5 M
Procedure, shortened: as §1

[5] = test system: 786-0; settings: Renal cancer 786-0; single dose 10^−5 M
Procedure, shortened: as §1

[6] = test system: ACHN; settings: Renal cancer ACHN; single dose 10^−5 M
Procedure, shortened: as §1

[7] = test system: MALME-3M; settings: Melanoma MALME-3M; single dose 10^−5 M
Procedure, shortened: as §1

[8] = test system: RXF 393; settings: Renal cancer RXF 393; single dose 10^−5 M
Procedure, shortened: as §1

[9] = test system: RPMI-8226; settings: Leukaemia RPMI-8226; single dose 10^−5 M
Procedure, shortened: as §1

[10] = test system: NCI-H23; settings: Non-small cell lung cancer NCI-H23; single dose 10^−5 M
Procedure, shortened: as §1

[11] = test system: HOP-92; settings: Non-small cell lung cancer HOP-92; single dose 10^−5 M
Procedure, shortened: as §1

[12] = test system: HCC-2998; settings: Colon cancer HCC-2998; single dose 10^−5 M
Procedure, shortened: as §1

[13] = test system: A549/ATCC; settings: Non-small cell lung cancer A549/ATCC; single dose 10^−5 M
Procedure, shortened: as §1

[14] = test system: OVCAR-8; settings: Ovarian cancer OVCAR-8; single dose 10^−5 M
Procedure, shortened: as §1

[15] = test system: MDA-MB-435; settings: Melanoma MDA-MB-435; single dose 10^−5 M
Procedure, shortened: as §1

[16] = test system: CAKI-1; settings: Renal cancer CAKI-1; single dose 10^−5 M
Procedure, shortened: as §1

[17] = test system: HCT-15; settings: Colon cancer HCT-15; single dose 10^−5 M
Procedure, shortened: as §1

[18] = test system: SF-268; settings: CNS cancer SF-268; single dose 10^−5 M
Procedure, shortened: as §1

[19] = test system: SK-MEL-5; settings: Melanoma SK-MEL-5; single dose 10^−5 M
Procedure, shortened: as §1

[20] = test system: OVCAR-4; settings: Ovarian cancer OVCAR-4; single dose 10^−5 M
Procedure, shortened: as §1

[21] = test system: SF-295; settings: CNS cancer SF-295; single dose 10^−5 M
Procedure, shortened: as §1

[22] = test system: SK-MEL-2; settings: Melanoma SK-MEL-2; single dose 10^−5 M
Procedure, shortened: as §1

[23] = test system: SN12C; settings: Renal cancer SN12C; single dose 10^−5 M
Procedure, shortened: as §1

[24] = test system: T-47D; settings: Breast cancer T-47D; single dose 10^−5 M
Procedure, shortened: as §1

| Structure (SMILES) | GI% at 10^−5 M [1] | GI% at 10^−5 M [2] | GI% at 10^−5 M [3] | GI% at 10^−5 M [4] | GI% at 10^−5 M [5] | GI% at 10^−5 M [6] | GI% at 10^−5 M [7] | GI% at 10^−5 M [8] | GI% at 10^−5 M [9] | GI% at 10^−5 M [10] | GI% at 10^−5 M [12] | GI% at 10^−5 M [13] | GI% at 10^−5 M [14] | GI% at 10^−5 M [15] | GI% at 10^−5 M [16] | GI% at 10^−5 M [17] | GI% at 10^−5 M [18] | GI% at 10^−5 M [19] | GI% at 10^−5 M [20] | GI% at 10^−5 M [21] | other results |
| --- | --- | --- | --- | --- | --- | --- | --- | --- | --- | --- | --- | --- | --- | --- | --- | --- | --- | --- | --- | --- | --- |
| COc1cc(C=Nn2c(COc3ccccc3)nc3ccccc3c2=O)ccc1O [Compound 6a, 3-((4-hydroxy-3-methoxybenzylidene)amino)-2-(phenoxymethyl)quinazolin-4(3H)-one] | – (– means GI < 10%) | – (– means GI < 10%) | – (– means GI < 10%) | – (– means GI < 10%) | – (– means GI < 10%) | – (– means GI < 10%) | – (– means GI < 10%) | – (– means GI < 10%) | – (– means GI < 10%) | – (– means GI < 10%) | – (– means GI < 10%) | – (– means GI < 10%) | – (– means GI < 10%) | – (– means GI < 10%) | – (– means GI < 10%) | – (– means GI < 10%) | – (– means GI < 10%) | – (– means GI < 10%) | – (– means GI < 10%) | – (– means GI < 10%) | GI% at 10^−5 M [11]: – (– means GI < 10%); GI% at 10^−5 M [22]: – (– means GI < 10%); GI% at 10^−5 M [23]: 10.37%; GI% at 10^−5 M [24]: – (– means GI < 10%) |
| COc1ccc(NC(=O)CNn2c(COc3ccccc3)nc3ccccc3c2=O)cc1 [Compound 4b, N-(4-methoxyphenyl)-2-((4-oxo-2-(phenoxymethyl)quinazolin-3(4H)-yl)amino)acetamide] | 9.76% | – (– means GI < 10%) | – (– means GI < 10%) | – (– means GI < 10%) | – (– means GI < 10%) | – (– means GI < 10%) | – (– means GI < 10%) | – (– means GI < 10%) | – (– means GI < 10%) | – (– means GI < 10%) | – (– means GI < 10%) | – (– means GI < 10%) | – (– means GI < 10%) | – (– means GI < 10%) | 21.63% | – (– means GI < 10%) | – (– means GI < 10%) | – (– means GI < 10%) | – (– means GI < 10%) | – (– means GI < 10%) | GI% at 10^−5 M [11]: 16.34%; GI% at 10^−5 M [22]: – (– means GI < 10%); GI% at 10^−5 M [23]: 12.37%; GI% at 10^−5 M [24]: – (– means GI < 10%) |
| O=c1c2ccccc2nc(COc2ccccc2)n1NS(=O)(=O)c1ccc(Cl)cc1 [Compound 5c, 4-chloro-N-(4-oxo-2-(phenoxymethyl)quinazolin-3(4H)-yl)benzenesulfonamide] | 17.26% | – (– means GI < 10%) | 26.99% | 25.84% | – (– means GI < 10%) | – (– means GI < 10%) | 17.90% | – (– means GI < 10%) | – (– means GI < 10%) | 17.19% | 22.36% | 14.05% | – (– means GI < 10%) | 94.53% | 26.93% | 45.60% | 11.40% | – (– means GI < 10%) | – (– means GI < 10%) | – (– means GI < 10%) | GI% at 10^−5 M [22]: 25.29%; GI% at 10^−5 M [23]: 23.41%; GI% at 10^−5 M [24]: 25.18% |
| O=C(CN1CCN(c2ccccc2)CC1)Nn1c(COc2ccccc2)nc2ccccc2c1=O [Compound 8b, N-(4-oxo-2-(phenoxymethyl)quinazolin-3(4H)-yl)-2–(4-phenylpiperazin-1-yl)acetamid] | – (– means GI < 10%) | – (– means GI < 10%) | – (– means GI < 10%) | – (– means GI < 10%) | – (– means GI < 10%) | – (– means GI < 10%) | – (– means GI < 10%) | – (– means GI < 10%) | – (– means GI < 10%) | 10.01% | – (– means GI < 10%) | – (– means GI < 10%) | – (– means GI < 10%) | – (– means GI < 10%) | – (– means GI < 10%) | – (– means GI < 10%) | – (– means GI < 10%) | – (– means GI < 10%) | – (– means GI < 10%) | – (– means GI < 10%) | GI% at 10^−5 M [11]: – (– means GI < 10%); GI% at 10^−5 M [22]: – (– means GI < 10%); GI% at 10^−5 M [23]: – (– means GI < 10%); GI% at 10^−5 M [24]: – (– means GI < 10%) |
| Cc1ccc(S(=O)(=O)Nn2c(COc3ccccc3)nc3ccccc3c2=O)cc1 [Compound 5b, 4-methyl-N-(4-oxo-2-(phenoxymethyl)quinazolin-3(4H)-yl)benzenesulfonamide] | – (– means GI < 10%) | – (– means GI < 10%) | – (– means GI < 10%) | – (– means GI < 10%) | – (– means GI < 10%) | 15% | – (– means GI < 10%) | 10.27% | – (– means GI < 10%) | 11.47% | – (– means GI < 10%) | – (– means GI < 10%) | – (– means GI < 10%) | – (– means GI < 10%) | – (– means GI < 10%) | – (– means GI < 10%) | – (– means GI < 10%) | – (– means GI < 10%) | – (– means GI < 10%) | – (– means GI < 10%) | GI% at 10^−5 M [11]: 10.82%; GI% at 10^−5 M [22]: – (– means GI < 10%); GI% at 10^−5 M [23]: – (– means GI < 10%); GI% at 10^−5 M [24]: – (– means GI < 10%) |
| O=c1c2ccccc2nc(COc2ccccc2)n1N=CC=Cc1ccccc1 [Compound 6b, 2-(phenoxymethyl)-3-((3-phenylallylidene)amino)quinazolin-4(3H)-one] | 10.39% | 15.66% | – (– means GI < 10%) | – (– means GI < 10%) | – (– means GI < 10%) | – (– means GI < 10%) | – (– means GI < 10%) | – (– means GI < 10%) | 12.52% | – (– means GI < 10%) | – (– means GI < 10%) | – (– means GI < 10%) | – (– means GI < 10%) | – (– means GI < 10%) | – (– means GI < 10%) | 23.15% | – (– means GI < 10%) | – (– means GI < 10%) | 10.01% | – (– means GI < 10%) | GI% at 10^−5 M [11]: – (– means GI < 10%); GI% at 10^−5 M [22]: – (– means GI < 10%); GI% at 10^−5 M [23]: 12.39%; GI% at 10^−5 M [24]: – (– means GI < 10%) |
